Test results from patent US8658646B2, “Pyrrolopyrazine kinase inhibitors” (Hoffmann-LaRoche Inc., priority 2011, dated 2014).

Key:
[1] = biological target: T1, JAK3: Recombinant human kinase domain (Homo sapiens, UniProt P52333); test: Determination of IC50 of Janus Kinase (JAK) inhibition, radioactive end-point 33P-ATP assay, JAK3; format: biochemical; conditions: ATP 1.5 uM, peptide 50 uM, 20 minutes, read-out: JAK3-INHIB-DR/v1~NO ADDITIVE~Enzyme_Conc = 100
T1 construct: JAK3: Recombinant human kinase domain from Millipore (Cat #14-629) or prepared; purchased Millipore 14-629
T1 sequence (P52333 822-1111 limits assumed): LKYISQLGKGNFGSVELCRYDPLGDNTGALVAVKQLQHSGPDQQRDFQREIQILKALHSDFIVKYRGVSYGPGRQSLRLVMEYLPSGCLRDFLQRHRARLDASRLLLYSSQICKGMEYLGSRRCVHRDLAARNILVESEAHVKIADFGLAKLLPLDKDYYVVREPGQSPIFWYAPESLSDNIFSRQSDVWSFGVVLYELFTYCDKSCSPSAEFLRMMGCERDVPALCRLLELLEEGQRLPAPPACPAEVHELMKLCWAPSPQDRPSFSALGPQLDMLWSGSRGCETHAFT

[2] = biological target: T2, recombinant human SYK360-635 (Homo sapiens, UniProt P43405); test: Determination of IC50 of Spleen Tyrosine Kinase (SYK) inhibition, 33P ATP filtration assay; format: biochemical; conditions: SYK aa 360-635 0.5 nM; ATP 20 μM, peptide 5 μM, 0.1% BSA; read-out: SYK_ENZYME_FILTRATION/v1, BSA
T2 construct: made in house
Procedure: All concentrations were final in the reaction mixture and all incubations were carried at room temperature. […] SYK Assay Information Determination of IC50 of Spleen Tyrosine Kinase (SYK) Inhibition:
SYK kinase assay is a standard kinase assay adapted to a 96 well plate format. This assay is performed in 96-well format for IC50 determination with 8 samples which represented 10 half log dilutions and a 40 μL reaction volume. The assay measures the incorporation of radiolabeled ^33P γATP into an N-terminally biotinylated peptide substrate, derived from naturally occurring phosphoacceptor consensus sequence (Biotin-11aa DY*E). […] Experimental Method:
DMSO and the mixture was incubated for 10 min at RT.
The kinase reaction was initiated by the addition of 10 μL 4× substrate cocktail containing the DYE peptide substrate [0 or 5 μM], ATP [20 μM] and ^33PγATP [2 μCi/r×n]. After incubation at 30° C. for 15 min, the reaction was terminated by the transfer of 25 μL pf the reaction sample to a 96 well 0.65 μm Millipore MADVNOB membrane/plate containing 200 μL 5 mM EDTA and 20% Streptavidine coated beads in PBS.
The unbound radionucleotides were washed under vacuum with 3×250 μL 2M NaCl; 2×250 μL 2M NaCl+1% phosphoric acid; 1×250 μL H2O. After the last wash membrane/plates were transferred to an adaptor plate, heat dried for 15 min at 60° C., and 50 μL scintillation cocktail was added to each well and 4 h later the amount of radioactivity was counted in a top counter.

IC50 [1] [µM]	IC50 [2] [µM]	SMILES
0.00041	0.0203	COC[C@H](C)NC(=O)c1c[nH]c2ncc(-c3nn(Cc4cccnc4)c4cc(F)ccc34)nc12 [Example I-241, 2-(6-Fluoro-1-pyridin-3-ylmethyl-1H-indazol-3-yl)-5H-pyrrolo[2,3-b]pyrazine-7-carboxylic acid ((S)-2-methoxy-1-methyl-ethyl)-amide]
0.0314	0.0219	Cn1nc(-c2cnc3[nH]cc(C(=O)N[C@H]4CCCOC4)c3n2)c2ccc(Cl)cc21 [Example I-138, 2-(6-Chloro-1-methyl-1H-indazol-3-yl)-5H-pyrrolo[2,3-b]pyrazine-7-carboxylic acid (S)-tetrahydro-pyran-3-ylamide]
0.0128	0.0121	Cn1nc(-c2cnc3[nH]cc(C(=O)NCC(C)(C)CO)c3n2)c2ccc(F)cc21 [Example I-114, 2-(6-Fluoro-1-methyl-1H-indazol-3-yl)-5H-pyrrolo[2,3-b]pyrazine-7-carboxylic acid (3-hydroxy-2,2-dimethyl-propyl)-amide]
0.0194	0.0672	C[C@@H](NC(=O)c1c[nH]c2ncc(-c3nn(C)c4cc(F)ccc34)nc12)C1COC1 [Example I-252, 2-(6-Fluoro-1-methyl-1H-indazol-3-yl)-5H-pyrrolo[2,3-b]pyrazine-7-carboxylic acid ((R)-1-oxetan-3-yl-ethyl)-amide]
0.0053	0.0148	CC(C)(C)NC(=O)c1c[nH]c2ncc(-c3ncn4cc(F)ccc34)nc12 [Example I-357, 2-(6-Fluoro-imidazo[1,5-a]pyridin-1-yl)-5H-pyrrolo[2,3-b]pyrazine-7-carboxylic acid tert-butylamide]
0.0115	0.0208	Cn1nc(-c2cnc3[nH]cc(C(=O)NC4CCOC4)c3n2)c2ccc(Cl)cc21 (stereo not shown) [Example I-107, 2-(6-Chloro-1-methyl-1H-indazol-3-yl)-5H-pyrrolo[2,3-b]pyrazine-7-carboxylic acid (tetrahydro-furan-3-yl)-amide]
0.0538	> 10	C[C@@H](NC(=O)c1c[nH]c2ncc(-c3nccc4ccccc34)nc12)C(=O)N1CC(C#N)C1 [Example I-77, 2-Isoquinolin-1-yl-5H-pyrrolo[2,3-b]pyrazine-7-carboxylic acid [(R)-2-(3-cyano-azetidin-1-yl)-1-methyl-2-oxo-ethyl]-amide]
0.0009	0.0334	CCn1nc(-c2cnc3[nH]cc(C(=O)N[C@H](C)C(=O)N4CC(C#N)C4)c3n2)c2ccc(Cl)cc21 [Example I-85, 2-(6-Chloro-1-ethyl-1H-indazol-3-yl)-5H-pyrrolo[2,3-b]pyrazine-7-carboxylic acid [(R)-2-(3-cyano-azetidin-1-yl)-1-methyl-2-oxo-ethyl]-amide]
0.0809	0.704	COC[C@@H](NC(=O)c1c[nH]c2ncc(-c3nn(C)c4cc(F)ccc34)nc12)[C@@H](C)O [Example I-177, 2-(6-Fluoro-1-methyl-1H-indazol-3-yl)-5H-pyrrolo[2,3-b]pyrazine-7-carboxylic acid ((1R,2R)-2-hydroxy-1-methoxymethyl-propyl)-amide]
0.0472	0.131	CC(NC(=O)c1c[nH]c2ncc(-c3nn(CCN4CCOCC4)c4cc(Cl)ccc34)nc12)c1cccnc1 (stereo not shown) [Example I-245, 2-[6-Chloro-1-(2-morpholin-4-yl-ethyl)-1H-indazol-3-yl]-5H-pyrrolo[2,3-b]pyrazine-7-carboxylic acid (1-pyridin-3-yl-ethyl)-amide]
0.00189	0.0046	CC[C@H](C)NC(=O)c1c[nH]c2ncc(-c3nn(C)c4cc(F)ccc34)nc12 [Example I-178, 2-(6-Fluoro-1-methyl-1H-indazol-3-yl)-5H-pyrrolo[2,3-b]pyrazine-7-carboxylic acid ((S)-sec-butyl)-amide]
